Two compounds from paper PMC12281475, “Mediator Kinase Inhibitor Selectivity and Activity in Colorectal Cancer” (ACS Chemical Biology, 2025) can be followed below.

Experiment [1] has as its system SW620 human solid tumor xenografts. Put plainly: Antitumor activity in SW620 tumor xenografts (parent and knockout clones). The note with it: 42 mg/kg p.o. qd 5/7 days, 14-20 days.
Description: Three separate clones were run for each knockdown condition (n = 7 control or treated mice per group for the parent and each individual clone). Tumors and plasma were collected 6 h after the final dose. For all graphs an ordinary one-way ANOVA with Dunnett’s correction was run to determine significance. […] Each point represents data from a knockout clone.
The establishment, treatment, pharmacokinetic analyses and processing of tumor samples from solid tumor xenografts was performed as described previously previously. , All procedures were performed in accordance with published NCRI guidelines and UK Government Home Office regulations.
The establishment, treatment, pharmacokinetic analysis and processing of tissue
samples from human tumour xenografts was performed as described previously.3,4 All
procedures were performed in accordance with published guidelines and UK
Government Home Office regulations.5 Female athymic nude mice Crl:NU-Foxn1nu
(Charles River Laboratories, US) were acclimatized for 1 week prior to use. Five million
SW620 human colorectal carcinoma cells were injected s.c. in the right flanks of 6–8
weeks old female NCr athymic mice under isofluorothane anesthesia. Therapy was
initiated when established tumours reached a mean volume of 60 mm (day 7). Animals
were randomly assigned into cohorts. Control mice received vehicle (0.5% Methocel,
at 42 mg/kg p.o qd for 5/7 days with a 2-day break after 1 week's dosing.
was prepared 24 h prior to administration to mice by weighing into a glass 30 mL
universal tube, and Methocel solution (0.5% Methocel, 0.25% Tween 20 in sterile
phosphate buffered saline) added to provide a final concentration of 3 mg/mL.
preparation was agitated at room temperature by magnetic stirrer to bring it into a fine
suspension before use. Animals were dosed orally by gavage every 24 h at 0.1 mL
per 10 g body weight. Tumours were measured three times weekly by Vernier calipers and body weights recorded. At the end of the study, day 3 for pharmacodynamic
biomarker analysis and day 14 for anti-tumour therapy experiments, animals were
culled 6 h after the final dose. Heparinized blood was collected by cardiac puncture,
spun, and the plasma snap frozen in liquid nitrogen for analysis of compound
exposure. Tumours were excised, weighed and samples snap frozen for compound
The subject of experiment [2] is MED14 phosphorylation in SW620 cells. Put plainly: CDK-substrate motif immunoprecipitation and MED14 immunoblot, SW620. It counts as cell-based, human. The note with it: parent SW620, 350 nM, 6 h. From the text: 3 Mediator kinase knockout alters STAT1^SER727phosphorylation and promoter activity in SW620 human colon cancer cells. (A) Capillary immunoassay of Mediator kinase module expression and pSTAT1^SER727 biomarker in multiple independent knockout clones. GAPDH was included as a loading control. […] Controls included IgG alone for background, DMEM for untreated cells, and DMSO as a vehicle control. MED14 was detected as a doublet pair of bands by immunoblotting of cell lysates (middle gel panel). […] The lower panel includes vinculin as a loading control. (C) Promoter reporter results from CDK8 knockout clone 1 relative to parent SW620 cells. Data represent mean ± s.e.m (n = 3). The black horizontal line indicates unchanged reporter activity, while the horizontal red line highlights reporters with altered activity ±1.5-fold. […]
(§1) Cell monolayers were washed with PBS twice and lysed using a modified RIPA buffer, mRIPA (50 mM TRIS-HCl pH 7.4, 1% NP-40 substitute, 0.5% NaDOC, 150 mM NaCl, 1 mM EDTA, 0.02% SDS and 1:100 dilution of proteinase and phosphatase inhibitor cocktail, (#5872, Cell Signaling Technology) with overnight freezing at -80 °C and sonication of the cell pellet. Lysates were clarified by centrifugation and supernatants collected and protein concentration determined by a bicinchoninic acid (BCA) assay. […]
(In general: Immunoblotting shows a protein as a band on a membrane.)

For experiment [3], the system named is MED14 phosphorylation in COLO205 cells. Put plainly: CDK-phospho-motif immunoprecipitation and MED14 immunoblot, COLO205. The note with it: COLO205, 350 nM, 6 h. Type of experiment: cell-based, human.
Excerpt: In the absence of phospho-specific antibodies targeting these sites, we employed immunoprecipitation using CDK-phospho-motif antibodies followed by immunoblotting with a MED14 antibody to validate the observed reduction in MED14 phosphorylation. […] In contrast, phosphorylation of MED13 and MED26 was reduced in only 2 of 5 and 5 of 10 CDK-phospho-motif peptides, respectively (Figure E and Supporting Figure S2C). This heterogeneous phosphorylation pattern complicates validation using motif-based immunoprecipitation, as reductions at specific phospho-sites may be obscured by unchanged CDK-motif phosphorylation at other sites. […]
as §1
= biological repeats; * = phosphorylated residue). (B) STAT1SER727 phosphorylation in COLO205 or SW620 cell lysates detected using two different phospho-STAT1SER727-specific antibodies following treatment with 350 nM CCT251545 for 6 hours. […]

The test system of the next experiment is COLO205 cells. Put plainly: Promoter reporter panel (transient luciferase constructs), COLO205. It counts as cell-based, human. The note with it: COLO205, 350 nM, 6 h.

Consider `Cn1ncc2cc(-c3cnc(N)c(Cl)c3N3CCC4(CCNC4=O)CC3)ccc21` [CCT251921], for which the “antitumor activity, treated/control (T/C)” value in experiment [1] (CDK8/19 double knockout SW620 xenografts, p < 0.005) is 113 ± 10%; in experiment [1] (CDK8 knockout SW620 xenografts, ± s.e.m.) it was 59 ± 6%; in experiment [1] (CDK19 knockout SW620 xenografts), 66 ± 3%; in experiment [1] (parental SW620 xenografts) it was 63%.
Turning to `Cn1cc(-c2ccc(-c3cncc(Cl)c3N3CCC4(CCNC4=O)CC3)cc2)cn1` [CCT251545], the “MED14 upper band (immunoblot of cell lysates)” value in experiment [2] is listed as “reduced by active compound treatment”. In addition, the “MED14 phosphorylation (CDK-phospho-motif immunoprecipitation, MED14 immunoblot)” value in experiment [3] is “decrease was evident”. Further, the “reduction of activity of TCF/LEF, SP1 and PAX6 reporter constructs” value in the experiment with COLO205 cells was more than 1.5 fold. Moreover, the “WNT-regulated TCF/LEF reporter construct activity” value in the experiment with COLO205 cells (p adj < 0.001) is recorded as “most significant decrease”.
